Measurements from patent US6730666B1, “Pharmaceutical compositions comprising porphyrins and some novel porphyrin derivatives” (Yeda Research and Development Co. Ltd., priority 1998, dated 2004).

Tests used:
[1] = molecular target: FGFR-1 (Mus musculus, UniProt P16092); assay: Covalent cross-linking of 125I-bFGF to CHO cells transfected with FGFR-1; format: binding; set-up: expressed in transfected cells; host or cells: CHO cells deficient in heparan sulfate; settings: FIG. 2
Procedure: Binding of ^125I-bFGF to confluent monolayers of PGFR-1 expressing CHO cells or ^125I-FGF9 to FGFR-3 expressing CHO cells, was performed as described in Methods, section (iv), in the presence or absence of P1 (Inhibitor). After 90 min, disuccinylimidyl suberate [DSS]
(iv) Binding of ^125I-bFGF and ^125I-FGF9 to cells. Confluent cultures of CHO cells expressing FGFR-1(Yayon et al, 1991) or FGFR-3 (Hecht et al, 1995) in 24-well plates (Falcon) were precooled and washed twice with cold DMEM supplemented with 20 mM Hepes (pH 7.5) and 0.1% bovine serum albumin (DMEM/BSA). They were then incubated for 1.5 h at 4° C. with ^125I-bFGF (2 ng/ml) and increasing concentrations of porphyrin/corrole compound. The binding medium was discarded and the cells were washed once with ice-cold DMEM/BSA and twice with cold PBS (pH 7.5) containing 1.6M NaCl. […] Non-specific binding was determined in the presence of a 100-fold excess of unlabeled bFGF.
In order to unequivocally determine the specificity of the binding inhibition, chemical cross-linking of ^125I-bFGF and ^125I-FGF9 to CHO cells transfected with FGFR-1 and FGFR-3, respectively, was carried out as described in Methods, section (iv), in the absence or presence of increasing concentrations of P1.

[2] = test system: PLC-γ; assay: PLC-γ phosphorylation in FGFR-3 expressing cells induced by FGF-9; format: cell-based; settings: FIG. 15A
Procedure: (§1) (viii) Immunoblots. To the overnight serum-starved cells (2 plates for each treatment), 500 μl of F12^++ medium were added which either contained or not the respective porphyrin or corrole compound in a final concentration of […] for 40 min at 37° C. One of the two plates of each treatment was then stimulated with FGF9 (+) (75 ng/ml) and to the second plate only medium (−) was added for 10 min at 37° C. The cells were washed twice with PBS. 600 μl of SBN lysis buffer containing 1% NP-40 and 1 mM vanadate were added and left on ice for 10 min. The plates were then scraped and left on ice for additional 10 min. The lysate was span down in Eppendorf centrifuge for 15 min, 15000 rpm at 4° C. The supernatants were kept and Bradford protein determinant on assay was performed in the samples. 500 μg protein from each sample were taken for immunoprecipitation with 7.5 μl antibody against FGFR-3, 4 hr at 4° C.
(§2) These findings support the notion that the porphyrins can serve for treating FGFR-3 related growth disorders. ERK1 and ERK2 are two isoforms of ERK.

[3] = molecular target: T1, FGFR-3 (Homo sapiens, UniProt P22607); assay: Binding of 125I-FGF9 to immobilized soluble FGFR-3 (FR-3-AP); settings: FIG. 11
T1 construct: soluble FGFR-3 ectodomain alkaline phosphatase fusion protein (FR-3-AP); made in house; host or cells: NIH 3T3 cells (conditioned medium)
T1 sequence (P22607 23-375 limits assumed): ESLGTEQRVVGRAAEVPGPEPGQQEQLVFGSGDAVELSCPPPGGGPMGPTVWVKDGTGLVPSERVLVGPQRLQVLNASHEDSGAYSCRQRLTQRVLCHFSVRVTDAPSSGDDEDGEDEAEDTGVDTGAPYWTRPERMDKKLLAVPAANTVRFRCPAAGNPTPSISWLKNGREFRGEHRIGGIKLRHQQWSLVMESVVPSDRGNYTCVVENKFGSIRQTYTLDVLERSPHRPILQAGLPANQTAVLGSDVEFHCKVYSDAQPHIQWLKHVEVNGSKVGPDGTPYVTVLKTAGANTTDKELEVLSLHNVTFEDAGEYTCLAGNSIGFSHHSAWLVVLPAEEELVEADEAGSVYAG
Procedure: Incubations were performed in the presence of 100 ng/ml heparin and increasing concentrations of porphyrins. […] Results represent the mean value in one of at least two independent experiments.
(iii) Binding of ^125I-bFGF or ^125I-FGF9 to s luble FGFR-1 or FGFR-3. Conditioned medium from NIH 3T3 cells secreting soluble FRAP or FGFR-3 FR-3-AP, was incubated for 45 min at room temperature with rabbit anti-human placental AP antibodies (generated as described in Ornitz et al, 1991) prebound to agarose-protein A beads Pierce). The FGFR-1 or FGFR-3-coupled beads were washed three times with 1 ml HNTG and incubated with 2 ng/ml of ^125I-FGF, 1 μg/ml of heparin and porphyrin/corrole compound at different concentrations for 1 h at room temperature. High affinity-bound ^125I-bFGF was determined by counting of the samples in a γ-counter.
Thus, the compounds were tested for their capacity to inhibit binding of a soluble FGFR-3 ectodomain alkaline phosphatase fusion protein (FR-3-AP) to FGF-9, utilizing a cell free system, similar to the one described for FGFR-1 in Example 1 above, and measuring the binding of radiolabeled ^125I-FGF-9 to soluble FGFR-3.

[4] = test system: ERK; assay: ERK phosphorylation in FGFR-3 expressing cells induced by FGF-9; format: cell-based; settings: FIG. 15B
Procedure: as §1, §2

Sequence of FGFR-1 (P16092 22-822): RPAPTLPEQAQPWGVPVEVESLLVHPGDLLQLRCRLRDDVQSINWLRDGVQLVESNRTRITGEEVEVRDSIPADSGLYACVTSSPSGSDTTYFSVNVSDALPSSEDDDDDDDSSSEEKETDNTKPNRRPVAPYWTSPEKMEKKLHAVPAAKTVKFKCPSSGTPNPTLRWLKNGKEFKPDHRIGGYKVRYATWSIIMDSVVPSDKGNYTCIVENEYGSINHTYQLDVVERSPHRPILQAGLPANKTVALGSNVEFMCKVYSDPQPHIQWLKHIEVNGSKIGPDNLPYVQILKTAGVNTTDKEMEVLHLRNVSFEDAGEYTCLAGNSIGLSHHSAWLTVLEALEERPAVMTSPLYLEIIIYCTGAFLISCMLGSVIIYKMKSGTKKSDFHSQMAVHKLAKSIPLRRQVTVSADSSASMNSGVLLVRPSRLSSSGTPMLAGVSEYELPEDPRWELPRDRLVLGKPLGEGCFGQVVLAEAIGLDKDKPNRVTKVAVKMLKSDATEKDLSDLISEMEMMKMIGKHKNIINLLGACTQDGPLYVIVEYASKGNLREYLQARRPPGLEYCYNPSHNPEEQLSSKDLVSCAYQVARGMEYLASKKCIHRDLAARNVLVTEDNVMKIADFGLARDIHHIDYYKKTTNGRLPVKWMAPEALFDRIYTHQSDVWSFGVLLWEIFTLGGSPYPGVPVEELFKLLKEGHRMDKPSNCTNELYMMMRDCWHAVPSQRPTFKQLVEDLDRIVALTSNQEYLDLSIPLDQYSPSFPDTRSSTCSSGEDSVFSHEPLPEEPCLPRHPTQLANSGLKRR

Structure (SMILES) | Inhibition of bFGF-receptor complex formation (cross-linking), in words [1] | Effect on PLC-γ activation [2] | Relative potency in FGF-9/FGFR-3 soluble receptor assay, in words [3] | Effect on ERK activation [4]
C[n+]1ccc(-c2c3nc(c(-c4cc[n+](C)cc4)c4ccc([nH]4)c(-c4cc[n+](C)cc4)c4nc(c(-c5cc[n+](C)cc5)c5ccc2[nH]5)C=C4)C=C3)cc1 [Compound P1, 5,10,15,20-Tetrakis(N-methyl-4-pyridylium)-21H,23H-porphine tetra-p-tosylate] | inhibition of formation of a typical bFGF-receptor complex |  |  | 
C[n+]1ccc(-c2c3nc(c(-c4cc[n+](C)cc4)c4ccc([nH]4)c(-c4c(F)c(F)c(F)c(F)c4F)c4nc(c(-c5cc[n+](C)cc5)c5ccc2[nH]5)C=C4)C=C3)cc1.[I-].[I-].[I-] [Compound P16, 5-Pentafluorophenyl-10,15,20-tris(N-methyl-4-pyridylium)-21H,23H-porphine triiodide] |  | clear reduction in the activation | more potent | clear reduction in the activation
